In US12577226B2, “Compounds for treating Huntington's disease” (PTC THERAPEUTICS, INC., priority 2019, dated 2026):
pIC50: −log10 of the molar value.

Tested on: Endogenous Huntingtin Protein (capture with MW1 (expanded polyglutamine) or MAB2166 antibody)
Experiment: Endogenous Huntingtin Protein Assay (ELISA-based Meso Scale Discovery electrochemiluminescence assay)
Assay type: cell-based
Settings: MSD electrochemiluminescence platform
Method: Compounds of Formula (I), Formula (II), or Formula (III) were tested using the Meso Scale Discovery (MSD) Assay provided in International Application No. PCT/US2016/066042, filed on Dec. 11, 2016 and claiming priority to U.S. Provisional Application U.S. 62/265,652 filed on Dec. 10, 2015, the entire contents of which are incorporated herein by reference.
The Endogenous Huntingtin Protein assay used in Example 1 was developed using the ELISA-based MSD electrochemiluminescence assay platform.
Meso Scale Discovery (MSD) 96-well or 384-well plates were coated overnight at 4° C. with MW1 (expanded polyglutamine) or MAB2166 monoclonal antibody (for capture) at a concentration of 1 μg/mL in PBS (30 μL per well). Plates were then washed three times with 300 μL wash buffer (0.05% Tween-20 in PBS) and blocked (100 μL blocking buffer; 5% BSA in PBS) for 4-5 hours at room temperature with rotational shaking and then washed three times with wash buffer.
Samples (25 μL) were transferred to the antibody-coated MSD plate and incubated overnight at 4° C. After removal of the lysates, the plate was washed three times with wash buffer, and 25 μL of #5656S (Cell signaling; rabbit monoclonal) secondary antibody (diluted to 0.25 μg/mL in 0.05% Tween-20 in blocking buffer) was added to each well and incubated with shaking for 1 Hour at room temperature. Following incubation with the secondary antibody, the wells were rinsed with wash buffer after which 25 μL of goat anti-rabbit SULFO TAG secondary detection antibody (required aspect of the MSD system) (diluted to 0.25 μg/mL in 0.05% Tween-20 in blocking buffer) was added to each well and incubated with shaking for 1 hour at room temperature. After rinsing three times with wash buffer, 150 μL of read buffer T with surfactant (MSD) were added to each empty well, and the plate was imaged on a SI 6000 imager (MSD) according to manufacturers' instructions provided for 96- or 384-well plates.

Row | pIC50 | Compound
1 | ≥ 7.00 | Cc1cn2cc(-c3cnc(-c4ccc(O[C@@H]5CC(C)(C)NC(C)(C)[C@@H]5F)nn4)c(O)c3)cc2c(C)n1.Cc1cn2cc(-c3cnc(-c4ccc(O[C@H]5CC(C)(C)NC(C)(C)[C@H]5F)nn4)c(O)c3)cc2c(C)n1 (mixture of isomers) [Compound 67, 5-(1,3-dimethylpyrrolo[1,2-a]pyrazin-7-yl)-2-(6-{[(3R,4S)-3-fluoro-2,2,6,6-tetramethylpiperidin-4-yl]oxy}pyridazin-3-yl)pyridin-3-ol and 5-(1,3-dimethylpyrrolo[1,2-a]pyrazin-7-yl)-2-(6-{[(3S,4R)-3-fluoro-2,2,6,6-tetramethylpiperidin-4-yl]oxy}pyridazin-3-yl)pyridin-3-ol]
2 | 6.00 to 6.30 | CC1CN(c2ccc(-c3ncc(NCc4ccccn4)cc3O)nn2)CCN1 (stereo not drawn) [Compound 109, 2-[6-(3-methylpiperazin-1-yl)pyridazin-3-yl]-5-{[(pyridin-2-yl)methyl]amino}pyridin-3-ol]
3 | 6.00 to 6.30 | [2H]C([2H])([2H])n1cc(-c2cnc(-c3ccc(O[C@@H]4C[C@@H](C)NC5(CC5)C4)nn3)c(O)c2)cn1 [Compound 85, 2-(6-{[(5R,7R)-5-methyl-4-azaspiro[2.5]octan-7-yl]oxy}pyridazin-3-yl)-5-[1-(^2H3)methyl-1H-pyrazol-4-yl]pyridin-3-ol]
4 | 6.30 to 7.00 | CCc1cc(-c2cnc(-c3cnc(N4CC[C@@H](NC(C)(C)C)C4)nn3)c(O)c2)cn2cc(C)nc12 [Compound 148, 2-{3-[(3R)-3-(tert-butylamino)pyrrolidin-1-yl]-1,2,4-triazin-6-yl}-5-(8-ethyl-2-methylimidazo[1,2-a]pyridin-6-yl)pyridin-3-ol]
5 | ≥ 7.00 | CC1CN(c2ccc(-c3ncc(-c4cc(F)c5nn(C)cc5c4)cc3O)nn2)CCN1 (stereo not drawn) [Compound 97, 5-(7-fluoro-2-methyl-2H-indazol-5-yl)-2-[6-(3-methylpiperazin-1-yl)pyridazin-3-yl]pyridin-3-ol]
6 | ≥ 7.00 | CC1(C)CC(Nc2cnc(-c3ncc(-n4nccn4)cc3O)nn2)CC(C)(C)N1 [Compound 163, 2-{6-[(2,2,6,6-tetramethylpiperidin-4-yl)amino]-1,2,4-triazin-3-yl}-5-(2H-1,2,3-triazol-2-yl)pyridin-3-ol]
7 | ≥ 7.00 | CCC1CN(c2ccc(-c3ncc(-c4cn[nH]c4)cc3O)nn2)CCN1 (stereo not drawn) [Compound 119, 2-[6-(3-ethylpiperazin-1-yl)pyridazin-3-yl]-5-(1H-pyrazol-4-yl)pyridin-3-ol]
8 | 6.00 to 6.30 | Cc1cn2cc(-c3cnc(-c4ccc(N5CC6CC5CN6)nn4)c(O)c3)cnc2n1 (stereo not drawn) [Compound 116, 2-[6-(2,5-diazabicyclo[2.2.1]heptan-2-yl)pyridazin-3-yl]-5-(2-methylimidazo[1,2-a]pyrimidin-6-yl)pyridin-3-ol]
9 | 6.30 to 7.00 | CC1(C)CC(Oc2ccc(-c3ncc(-n4ccnn4)cc3O)nn2)CC(C)(C)N1 [Compound 63, 2-{6-[(2,2,6,6-tetramethylpiperidin-4-yl)oxy]pyridazin-3-yl}-5-(1H-1,2,3-triazol-1-yl)pyridin-3-ol]

Second part, the compound before the results:

Row | Compound | pIC50
10 | 5-(7-fluoro-2-methyl-2H-indazol-5-yl)-2-{6-[(3R,5S)-3,4,5-trimethylpiperazin-1-yl]pyridazin-3-yl}pyridin-3-ol and 5-(7-fluoro-2-methyl-2H-indazol-5-yl)-2-{6-[(3S,5R)-3,4,5-trimethylpiperazin-1-yl]pyridazin-3-yl}pyridin-3-ol [Compound 91] | ≥ 7.00
11 | 5-[(5-methylpyrazin-2-yl)amino]-2-{6-[(3R)-3-(propan-2-yl)piperazin-1-yl]pyridazin-3-yl}pyridin-3-ol and 5-[(5-methylpyrazin-2-yl)amino]-2-{6-[(3S)-3-(propan-2-yl)piperazin-1-yl]pyridazin-3-yl}pyridin-3-ol [Compound 133] | ≥ 7.00
12 | 5-[(6-methylpyridin-3-yl)amino]-2-{6-[(3R)-3-(propan-2-yl)piperazin-1-yl]pyridazin-3-yl}pyridin-3-ol and 5-[(6-methylpyridin-3-yl)amino]-2-{6-[(3S)-3-(propan-2-yl)piperazin-1-yl]pyridazin-3-yl}pyridin-3-ol [Compound 127] | ≥ 7.00
13 | CN(c1ccc(-c2ncc(-n3ccnc3)cc2O)nn1)C1CC(C)(C)NC(C)(C)C1 [Compound 15, 5-(1H-imidazol-1-yl)-2-{6-[methyl(2,2,6,6-tetramethylpiperidin-4-yl)amino]pyridazin-3-yl}pyridin-3-ol] | ≥ 7.00
14 | [2H]C([2H])([2H])n1cc(-c2cnc(-c3cnc(N(C)C4CC(C)(C)NC(C)(C)C4)nn3)c(O)c2)cn1 [Compound 142, 5-[1-(^2H3)methyl-1H-pyrazol-4-yl]-2-{3-[methyl(2,2,6,6-tetramethylpiperidin-4-yl)amino]-1,2,4-triazin-6-yl}pyridin-3-ol] | ≥ 7.00
15 | Cn1cc2cc(-c3cnc(-c4ccc(OC5CC(C)(C)NC(C)(C)C5)nn4)c(O)c3)cc(F)c2n1 [Compound 52, 5-(7-fluoro-2-methyl-2H-indazol-5-yl)-2-{6-[(2,2,6,6-tetramethylpiperidin-4-yl)oxy]pyridazin-3-yl}pyridin-3-ol] | ≥ 7.00
16 | CC1(C)C[C@H](Oc2ccc(-c3ncc(-c4ncco4)cc3O)nn2)[C@H](F)C(C)(C)N1 (single isomer, unassigned) [Compound 12, 2-(6-{[(3R,4S)-3-fluoro-2,2,6,6-tetramethylpiperidin-4-yl]oxy}pyridazin-3-yl)-5-(1,3-oxazol-2-yl)pyridin-3-ol or 2-(6-{[(3S,4R)-3-fluoro-2,2,6,6-tetramethylpiperidin-4-yl]oxy}pyridazin-3-yl)-5-(1,3-oxazol-2-yl)pyridin-3-ol] | ≥ 7.00
17 | C[C@@H]1CN(c2ccc(-c3ncc(-c4ccc5ncnn5c4)cc3O)nn2)C[C@H](C)N1 [Compound 94, 2-{6-[(3R,5S)-3,5-dimethylpiperazin-1-yl]pyridazin-3-yl}-5-([1,2,4]triazolo[1,5-a]pyridin-6-yl)pyridin-3-ol and 2-{6-[(3S,5R)-3,5-dimethylpiperazin-1-yl]pyridazin-3-yl}-5-([1,2,4]triazolo[1,5-a]pyridin-6-yl)pyridin-3-ol] | 6.00 to 6.30
18 | CC1(C)C[C@H](Nc2ccc(-c3ncc(-c4cn[nH]c4)cc3O)nn2)[C@@H](F)C(C)(C)N1 [Compound 8, 2-(6-{[(3R,4S)-3-fluoro-2,2,6,6-tetramethylpiperidin-4-yl]amino}pyridazin-3-yl)-5-(1H-pyrazol-4-yl)pyridin-3-ol] | ≥ 7.00
19 | Cn1ccc(-c2cnc(-c3ccc(O[C@H]4CC(C)(C)NC(C)(C)[C@H]4F)nn3)c(O)c2)cc1=O (single isomer, unassigned) [Compound 37, 6-(6-{[(3R,4S)-3-fluoro-2,2,6,6-tetramethylpiperidin-4-yl]oxy}pyridazin-3-yl)-5-hydroxy-1′-methyl[3,4′-bipyridin]-2′(1′H)-one or 6-(6-{[(3S,4R)-3-fluoro-2,2,6,6-tetramethylpiperidin-4-yl]oxy}pyridazin-3-yl)-5-hydroxy-1′-methyl[3,4′-bipyridin]-2′(1′H)-one] | 6.30 to 7.00
20 | 5-(8-ethyl-2-methylimidazo[1,2-a]pyridin-6-yl)-2-(6-{[(3R,4S)-3-fluoro-2,2,6,6-tetramethylpiperidin-4-yl]oxy}pyridazin-3-yl)pyridin-3-ol and 5-(8-ethyl-2-methylimidazo[1,2-a]pyridin-6-yl)-2-(6-{[(3S,4R)-3-fluoro-2,2,6,6-tetramethylpiperidin-4-yl]oxy}pyridazin-3-yl)pyridin-3-ol [Compound 45] | ≥ 7.00
21 | CN(c1ccc(-c2ncc(-c3ccn(C)n3)cc2O)nn1)C1CC(C)(C)NC(C)(C)C1 [Compound 13, 5-(1-methyl-1H-pyrazol-3-yl)-2-{6-[methyl(2,2,6,6-tetramethylpiperidin-4-yl)amino]pyridazin-3-yl}pyridin-3-ol] | ≥ 7.00
22 | CC(C)(C)N[C@@H]1CCN(c2ccc(-c3ncc(-n4nccn4)cc3O)nn2)C1 [Compound 24, 2-{6-[(3R)-3-(tert-butylamino)pyrrolidin-1-yl]pyridazin-3-yl}-5-(2H-1,2,3-triazol-2-yl)pyridin-3-ol] | ≥ 7.00
23 | 2-(6-{[(3R,4S)-3-fluoro-2,2,6,6-tetramethylpiperidin-4-yl]oxy}pyridazin-3-yl)-5-(2-methylimidazo[1,2-a]pyrimidin-6-yl)pyridin-3-ol and 2-(6-{[(3S,4R)-3-fluoro-2,2,6,6-tetramethylpiperidin-4-yl]oxy}pyridazin-3-yl)-5-(2-methylimidazo[1,2-a]pyrimidin-6-yl)pyridin-3-ol [Compound 54] | ≥ 7.00
24 | 2-(6-{[(3R,4R)-3-fluoro-2,2,6,6-tetramethylpiperidin-4-yl]amino}pyridazin-3-yl)-5-[1-(^2H3)methyl-1H-pyrazol-4-yl]pyridin-3-ol or 2-(6-{[(3S,4S)-3-fluoro-2,2,6,6-tetramethylpiperidin-4-yl]amino}pyridazin-3-yl)-5-[1-(^2H3)methyl-1H-pyrazol-4-yl]pyridin-3-ol [Compound 19] | ≥ 7.00
